Data published in patent publication US10350230B2, “Use of albiflorin or pharmaceutically acceptable salt for prevention and/or treatment of irritable bowel syndrome” (priority 2015, dated 2019).
Where a name gives a salt, the structure may show the parent alone.

Legend:
[1] = test system: diarrhea model of irritable bowel syndrome induced by restraint stress in rats; experiment: Diarrhea of irritable bowel syndrome induced by restraint stress in rat; type: in vivo; conditions: for Number of fecal pellets excreted in 1 h / Time for excreting glass ball: 7 days, restraint stress rats; for number of fecal pellets excreted (result in words): high-, mid- and low-dose groups, compared with model control group
Description: The restraint stress stimulus method was used to induce abnormal defecation in rats, thereby leading to increase of colon smooth muscle movement and accelerating intestinal transport.
The animals were randomly divided into 10 groups as follows: normal control group; model control group (normal saline); high-, mid- and low-dose groups of test drugs (albiflorin and paeoniflorin); and positive control groups (loperamide hydrochloride (Imodium™) and trimebutine maleate (Yuanshengliwei™)). Gavage administration was performed on each group once a day, for 7 consecutive days.
The rats were deprived of food for 24 hours before the test. Half an hour after the last administration, the rats were anesthetized with ethyl ether. After the rat fainted away, its front shoulder, front upper limbs and chest were bound with scotch tape to prevent the front upper limbs from scratching its face, but the movement of the front upper limbs was not limited. A glass ball with a diameter of 3 mm was placed into the rectum 3 cm away from anus. The rats were moved rapidly into cages which were padded with clean filter paper. Timing started when the rat woke up, and the binding time was one hour. The number of fecal pellets excreted by the rat in one hour and the time for excreting glass ball were recorded. Statistical analysis of data was performed using t-test for intergroup comparison.

[2] = test system: small intestine spasm models induced by Neostigmine in mice; experiment: Abdominal pain of irritable bowel syndrome in mice (Neostigmine small intestine spasm, carbon powder propulsion); type: in vivo; conditions: for propulsive distance and propulsive rate of carbon powder suspension in mice intestine tract stimulated by Neostigmine (result in words): high-, mid- and low-dose groups, compared with pathology modeling control group; for Propulsive distance / Propulsive rate: 7 days, Neostigmine mice, carbon powder
Experimental: All the animals were deprived of food for 12 hours before the test. […] After 15 minutes, gavage administration of carbon powder paste was performed on all groups (0.2 ml/10 g body weight, each dosage contains 0.05 g of carbon powder and 0.02 g of carboxymethyl cellulose). The animals were killed 20 minutes later. The propulsive length of carbon powder in small intestine and the total length of small intestine were measured respectively, and then the propulsive rate of carbon powder was calculated. Statistical analysis of data was performed using t-test for intergroup comparison.
The propulsive distance: to measure the propulsive length of carbon powder in small intestine.
Propulsive rate (%)=(propulsive length/total length of small intestine)×100%.

[3] = test system: chronic unpredictable stress (CUS) model in rats; experiment: Chronic stress depression model in rats: sucrose aqueous solution-drinking test; conditions: for Sugar aqueous solution preference: 38 days, CUS rats, Means±SEM; for sugar aqueous solution preference of rats (result in words): compared with the model group
[4] = test system: chronic unpredictable stress (CUS) model in rats; experiment: Chronic stress depression model in rats: open field test; conditions: for Number of times of horizontal movement in open field / Number of times of vertical movement in open field: CUS rats, 5 min, Means±SEM; for number of times of horizontal movement of rats in open field (result in words) / number of times of vertical movement of rats in open field (result in words): compared with the model group
[5] = test system: sleep time of mice induced by threshold dose of pentobarbital sodium; experiment: Sleep induced by pentobarbital sodium in mice; type: in vivo; conditions: for Sleep time: 60 min before pentobarbital sodium 50 mg/kg i.p., mice; for sleep time of mice induced by threshold dose of pentobarbital sodium (result in words): compared with normal saline group
Experimental: Mice with a body weight of 18-22 g, male and female, were selected. Mice with a single-sex were used in each test. The mice were randomly divided into groups as follows: albiflorin group, diazepam group (positive control group) and control group (normal saline). There were 10 mice in each group. 60 minutes after the gavage administration, threshold dose of pentobarbital sodium (50 mg/kg) was injected intraperitoneally. The disappearance of righting reflex was recorded as time to fall asleep, and the period from the righting reflex being disappeared until the righting reflex being recovered was recorded as sleep duration time. Compared with the control group, the significance was determined by time t test.

[6] = test system: mice in light-dark shuttle box; experiment: Light-dark shuttle box test in mice (anti-anxiety test); type: in vivo; conditions: for Number of times of returning from dark box back to light box: 7 days, mice; for number of times of returning from the dark box back to the light box (result in words): albiflorin high-, mid- and low-dose groups, diazepam group, compared with normal control group
Experimental: Mice were randomly divided into 5 groups, i.e. high-dose group of albiflorin (14 mg/kg/d), mid-dose group of albiflorin (7 mg/kg/d), low-dose group of albiflorin (3.5 mg/kg/d), diazepam group (2.5 mg/kg/d), and normal control group. Gavage administration was performed once a day, for 7 consecutive days. During the administration, animals had free access to food and water. The test was carried out 1 hour after the administration on Day 8.
Within the light-dark shuttle box (44 cm×21 cm×21 cm), the dark box accounts for one third thereof, with a cover on the top; and the light box accounts for two thirds thereof, with illumination brightness; and there is a hole between the two boxes for animal to pass through. During the test, mice were placed in the center of the light box, back to the dark box, and then observed. The number of times of entering into the dark box followed by returning to the light box in mice was counted, which was used as an index for the evaluation of anti-anxiety effect of a drug.
8.1.5 Statistical Analysis The data were expressed as X±SD, and the experimental results were analyzed by one-way ANOVA, using SPSS 11.5 statistical software.

Row | Compound | number of fecal pellets excreted (result in words) [1] | Number of fecal pellets excreted in 1 h ([1]; high-dose, 9.8 mg/kg/d gavage) | Time for excreting glass ball ([1]; high-dose, 9.8 mg/kg/d gavage) | Number of fecal pellets excreted in 1 h ([1]; low-dose, 2.45 mg/kg/d gavage) | Time for excreting glass ball ([1]; low-dose, 2.45 mg/kg/d gavage) | Number of fecal pellets excreted in 1 h ([1]; mid-dose, 4.9 mg/kg/d gavage) | Time for excreting glass ball ([1]; mid-dose, 4.9 mg/kg/d gavage) | propulsive distance and propulsive rate of carbon powder suspension in mice intestine tract stimulated by Neostigmine (result in words) [2] | Propulsive distance ([2]; high-dose, 14 mg/kg/d gavage) | Propulsive rate ([2]; high-dose, 14 mg/kg/d gavage) | Propulsive distance ([2]; low-dose, 3.5 mg/kg/d gavage) | Propulsive rate ([2]; low-dose, 3.5 mg/kg/d gavage) | Propulsive distance ([2]; mid-dose, 7 mg/kg/d gavage) | Propulsive rate ([2]; mid-dose, 7 mg/kg/d gavage) | sleep time of mice induced by threshold dose of pentobarbital sodium (result in words) [5] | number of times of returning from the dark box back to the light box (result in words) [6] | further results
1 | CN(C)C(=O)C(CCN1CCC(O)(c2ccc(Cl)cc2)CC1)(c1ccccc1)c1ccccc1 [Loperamide hydrochloride, loperamide hydrochloride] | – | – | – | – | – | – | – | – | – | – | – | – | – | – | – | – | Number of fecal pellets excreted in 1 h ([1]; 0.17 mg/kg/d gavage): 1.40 ± 0.97; Time for excreting glass ball ([1]; 0.17 mg/kg/d gavage): 26.00 ± 28.30 min
2 | C[C@@]12C[C@@]3(O)O[C@@H](O1)[C@]1(COC(=O)c4ccccc4)[C@H]3C[C@@]12O[C@@H]1O[C@H](CO)[C@@H](O)[C@H](O)[C@H]1O [Paeoniflorin, paeoniflorin, reference compound] | only a trend to decrease | 3.71 ± 2.02 | 10.70 ± 16.06 min | 4.10 ± 1.81 | 10.64 ± 15.01 min | 3.96 ± 1.36 | 10.50 ± 14.03 min | decreased only in high-dose group | 28.80 ± 3.79 cm | 65.64 ± 8.80% | 31.80 ± 3.79 cm | 72.64 ± 4.69% | 31.00 ± 1.93 cm | 71.92 ± 7.51% | – | – | –
3 | CNCCC(Oc1ccc(C(F)(F)F)cc1)c1ccccc1 (stereo not shown) [Flx, Fluoxetine, reference compound] | – | – | – | – | – | – | – | – | – | – | – | – | – | – | – | – | Sugar aqueous solution preference ([3]; 10 mg/kg gavage once a day): 70.63 ± 6.86 %; sugar aqueous solution preference of rats (result in words) ([3]; 10 mg/kg long-term gavage): obviously increased; Number of times of horizontal movement in open field ([4]; 10 mg/kg gavage once a day): 90.60 ± 7.72; Number of times of vertical movement in open field ([4]; 10 mg/kg gavage once a day): 20.80 ± 1.93; number of times of horizontal movement of rats in open field (result in words) ([4]; 10 mg/kg long-term gavage): obviously increased; number of times of vertical movement of rats in open field (result in words) ([4]; 10 mg/kg long-term gavage): obviously increased
4 | CN1C(=O)CN=C(c2ccccc2)c2cc(Cl)ccc21 [Diazepam, diazepam, reference compound] | – | – | – | – | – | – | – | – | – | – | – | – | – | – | obviously prolong | significantly increase | Sleep time ([5]; 0.5 mg/kg gavage): 96. ± 14.6 min; Sleep time ([5]; 1 mg/kg gavage): 102.0 ± 16.2 min; Number of times of returning from dark box back to light box ([6]; 2.5 mg/kg/d gavage): 13.6 ± 3.35
5 | trimebutine maleate | – | – | – | – | – | – | – | – | – | – | – | – | – | – | – | – | Number of fecal pellets excreted in 1 h ([1]; 6.25 mg/kg/d gavage): 3.70 ± 2.26; Time for excreting glass ball ([1]; 6.25 mg/kg/d gavage): 17.80 ± 21.88 min
6 | C[C@]12C[C@@H](O)[C@@H]3C[C@@]1(O[C@@H]1O[C@H](CO)[C@@H](O)[C@H](O)[C@H]1O)[C@@]3(COC(=O)c1ccccc1)C(=O)O2 [Albiflorin] | decreased obviously | 2.50 ± 1.27 | 10.60 ± 17.58 min | 2.60 ± 1.84 | 19.90 ± 17.69 min | 1.80 ± 1.48 | 12.00 ± 17.53 min | decreased obviously | 22.80 ± 4.78 cm | 57.47 ± 10.67 % | 22.10 ± 3.90 cm | 57.05 ± 4.69 % | 20.80 ± 4.64 cm | 54.53 ± 9.39 % | obviously prolong | significantly increase | Sleep time ([5]; 7 mg/kg gavage): 90.2 ± 15.1 min; Sleep time ([5]; 14 mg/kg gavage): 98.8 ± 12.4 min; Number of times of returning from dark box back to light box ([6]; high-dose, 14 mg/kg/d gavage): 13.9 ± 3.23; Number of times of returning from dark box back to light box ([6]; low-dose, 3.5 mg/kg/d gavage): 10.6 ± 3.42; Number of times of returning from dark box back to light box ([6]; mid-dose, 7 mg/kg/d gavage): 12.1 ± 3.51; Sugar aqueous solution preference ([3]; 3.5 mg/kg gavage once a day): 60.04 ± 10.86%; sugar aqueous solution preference of rats (result in words) ([3]; 3.5 mg/kg): did not obviously increase; sugar aqueous solution preference of rats (result in words) ([3]; 7.0 mg/kg and 14.0 mg/kg): obviously increased; Sugar aqueous solution preference ([3]; 7.0 mg/kg gavage once a day): 76.19 ± 5.35 %; Sugar aqueous solution preference ([3]; 14.0 mg/kg gavage once a day): 78.12 ± 4.04 %; Number of times of horizontal movement in open field ([4]; 3.5 mg/kg gavage once a day): 95.40 ± 9.23; Number of times of vertical movement in open field ([4]; 3.5 mg/kg gavage once a day): 20.50 ± 1.81; number of times of horizontal movement of rats in open field (result in words) ([4]; 3.5 mg/kg): obviously increased; number of times of horizontal movement of rats in open field (result in words) ([4]; 7.0 mg/kg and 14.0 mg/kg): can not obviously increase; Number of times of horizontal movement in open field ([4]; 7.0 mg/kg gavage once a day): 98.20 ± 8.61; Number of times of vertical movement in open field ([4]; 7.0 mg/kg gavage once a day): 21.10 ± 2.17; Number of times of horizontal movement in open field ([4]; 14.0 mg/kg gavage once a day): 104.10 ± 11.11; Number of times of vertical movement in open field ([4]; 14.0 mg/kg gavage once a day): 22.10 ± 2.66; number of times of vertical movement of rats in open field (result in words) ([4]; 3.5-14.0 mg/kg): obviously increased
